Assay results: publication doi:10.1101/2025.01.17.633651, “Markovian State Models uncover Casein Kinase 1 dynamics that govern circadian period” (bioRxiv, 2025)

Target: CK1 D132A
Assay: Radioactive (32P-ATP) timecourse kinase assay, CK1 D132A mutant
Type: biochemical, human
Settings: 200 μM peptide, 20 nM CK1 (primed) or 200 nM CK1 (unprimed), 750 μM ATP, 30 °C (Figure S15B-C)
Description: PER FASP region peptides were synthesized and purified to 95% or higher (SABio). Two independent reaction mixtures of 50 μL containing 200 μM of the FASP or in reaction buffer (25 mM Tris pH 7.5, 7.5 mM MgCl2, 1 mM DTT, 0.1 mg/mL BSA) were preincubated for 5 minutes with or without 20 nM CK1 (for primed FASP) or 200 nM CK1 (for unprimed FASP) and the reaction was started by addition of 750 μM of UltraPure ATP (Promega) containing 1–2 μCi of X-^32p ATP (Perkin Elmer). After incubation of the reaction mix at 30 °C, an 8 μL aliquot of the reaction mix was transferred to P81 phosphocellulose paper (Reaction Biology Corp) at the indicated timepoints. The P81 paper was washed three times with 75 mM of orthophosphoric acid and once with acetone. The air-dried P81 paper was counted for Pi incorporation using a scintillation counter (Perkin Elmer) by Cherenkov counting. Results shown are from four independent assays.

Substance	kinase activity, CK1 D132A compared with CK1 WT
RKKKTEVSAHLSSLTLPGKAESVVSLTSQ [unprimed FASP peptide, synthetic mouse PER2 FASP region peptide, unprimed CK1 substrate]	dramatic loss in activity
RKKKTEVSAHLSSLTLPGKAEpSVVSLTSQ [primed FASP peptide, synthetic mouse PER2 FASP peptide phosphorylated at the priming serine]	more modest effect
